Measurements as given in patent US20240390369A1, “METHODS FOR DETERMINING RESPONSIVENESS TO TYK2 INHIBITORS” (Bristol-Myers Squibb Company, priority 2021, published 2024).

Test system: patients with psoriatic arthritis
Assay: Phase 2 trial in psoriatic arthritis: PASI75 response at week 16
Type: in vivo, human
Conditions: for Odds Ratio for PASI75 response / Odds Ratio (OR) for PASI75 response / Interaction Term for PASI75 response (ratio of odds ratios): week 16
Method: In a double-blind Phase 2 trial, 203 patients with psoriatic arthritis were randomized into three groups: deucravacitinib 6 mg once daily (N=70), deucravacitinib 12 mg once daily (N=67), or placebo (N=66). All subjects had active psoriatic arthritis according to the Classification Criteria for Psoriatic Arthritis (CASPAR); for active disease, these criteria required ≥3 tender joint count, ≥3 swollen joint count, and a C-reactive protein level above 3 mg/L. Other inclusion criteria included the following: presence of at least one plaque psoriasis lesion, and prior treatment failure with a non-biologic disease modifying anti-rheumatic drug, a non-steroidal anti-inflammatory drug, or a steroid. With respect to treatment history, approximately 70% of subjects had not received prior treatment with a biologic and were biologic naïve, while up to 30% of subjects had failed or had been intolerant to one TNF-inhibitor (TNF=Tumor necrosis factor, also known as TNFα). Randomization was stratified by prior TNF-inhibitor use (experienced/naïve) and body weight (<90 kg and ≥90 kg).
Clinical measures included the Psoriasis […] (PASI) score for skin psoriasis, American College of Rheumatology 20 (ACR20) response, Psoriatic Arthritis Disease Activity Score (PASDAS), Health Assessment Questionnaire-Disability Index (HAQ-DI), and Disease Activity Score 28 CRP (DAS28). To evaluate the predictive value of different protein measurements for the clinical response to deucravacitinib, baseline protein concentrations for responders and non-responders, as defined by ACR20 or PASI75 at week 16, were compared for each arm (placebo, 6 mg deucravacitinib once-daily, and 12 mg deucravacitinib once-daily).
In addition, a logistic regression model was fit, to determine whether baseline disease score (dichotomized by the median baseline score, into baseline score high and baseline score low groups) was associated with response status. The model generated an odds ratio for each dosed arm versus placebo, in baseline score high and baseline score low groups.
Boxplots for baseline protein level by response were generated with a horizontal line indicating the median protein level at baseline. For each treatment arm, a two-sample t-test was performed to test whether mean baseline serum protein level was different in responders versus non-responders. A Wilcoxon rank sum test (Mann-Whitney U test) was also performed to evaluate the difference in median serum protein level between responders and non-responders. Further, barplots of ACR20 and PASI75 response rate at week 16 for each treatment arm were generated for all subjects (protein level high and protein level low subjects, dichotomized according to median baseline level). Line plots of ACR20 and PASI75 response rate over time for each treatment arm were generated for protein level high and protein level low groups. Logistic regression models were also fit to evaluate associations between baseline protein levels and clinical outcome.
For certain analyses described herein, patients were dichotomized by median values (e.g., of the proteins listed above or other measures) into “high” and “low” groups, such that the high group had values above the median and the low group had values less than or equal to the median.
In addition, logistic regression models were fit for response measures ACR20 and PASI75, to generate the odds ratio of each of the deucravacitinib treatment arms versus placebo, in BD2-high and BD2-low groups. The following logistic regression models were used: • For ACR20 response status: ACR20 (Y/N)=treatment arm+BD2 group+treatment arm*BD2 group+TNF-inhibitor use+baseline weight (continuous). • For PASI75 response status: PASI75 (Y/N)=treatment arm+BD2 group+treatment arm*BD2 group+TNF-inhibitor use+baseline weight (continuous). […]

[2H]C([2H])([2H])NC(=O)c1nnc(NC(=O)C2CC2)cc1Nc1cccc(-c2ncn(C)n2)c1OC [deucravacitinib, 6-(cyclopropanecarboxamido)-4-((2-methoxy-3-(1-methyl-1H-1,2,4-triazol-3-yl)phenyl)amino)-N-(methyl-d3)pyridazine-3-carboxamide]
Odds Ratio, PASI75 response status (CRP-high-PASI-high, 12 mg QD vs placebo): 17.226
Odds Ratio, PASI75 response status (CRP-high-PASI-low, 6 mg QD vs placebo): 0.710
Odds Ratio, PASI75 response status (CRP-high-PASI-low, 12 mg QD vs placebo): 5.115
Odds Ratio, PASI75 response status (CRP-high, 6 mg QD vs placebo, adjusted for baseline PASI score): 3.82
Odds Ratio, PASI75 response status (CRP-high, 12 mg QD vs placebo, adjusted for baseline PASI score): 12.05
Odds Ratio, PASI75 response status (CRP-low-PASI-high, 6 mg QD vs placebo): 2.470
Odds Ratio, PASI75 response status (CRP-low-PASI-high, 12 mg QD vs placebo): 16.368
Odds Ratio, PASI75 response status (CRP-low-PASI-low, 6 mg QD vs placebo): 1.866
Odds Ratio, PASI75 response status (CRP-low-PASI-low, 12 mg QD vs placebo): 1.197
Odds Ratio, PASI75 response status (CRP-low, 6 mg QD vs placebo, adjusted for baseline PASI score): 2.29
Odds Ratio, PASI75 response status (CRP-low, 12 mg QD vs placebo, adjusted for baseline PASI score): 3.79
Odds Ratio for PASI75 response (IL-17A high (baseline above median 0.575 ng/L), 6 mg QD vs placebo): 12.643
Odds Ratio for PASI75 response (IL-17A high (baseline above median 0.575 ng/L), 12 mg QD vs placebo): 20.916
PASI75 response rate at week 16 (IL-17A high group, 6 mg QD and 12 mg QD vs placebo (FIG. 21)): higher in both 6 mg QD and 12 mg QD treatment arms compared to placebo
Odds Ratio, PASI75 response status (IL-17A high-PASI high, 6 mg QD vs placebo): 12.355
Odds Ratio, PASI75 response status (IL-17A high-PASI high, 12 mg QD vs placebo): 15.937
Odds Ratio, PASI75 response status (IL-17A high-PASI low, 6 mg QD vs placebo): 13.247
Odds Ratio, PASI75 response status (IL-17A high-PASI low, 12 mg QD vs placebo): 30.955
Odds Ratio, PASI75 response status (IL-17A high, 6 mg QD vs placebo, adjusted for baseline PASI score): 13.452
Odds Ratio, PASI75 response status (IL-17A high, 12 mg QD vs placebo, adjusted for baseline PASI score): 23.963
Odds Ratio for PASI75 response (IL-17A high, treatment arms combined vs placebo): 15.763
Odds Ratio, PASI75 response status (IL-17A low-PASI high, 6 mg QD vs placebo): 3.005
Odds Ratio, PASI75 response status (IL-17A low-PASI high, 12 mg QD vs placebo): 20.919
Odds Ratio, PASI75 response status (IL-17A low-PASI low, 6 mg QD vs placebo): 0.188
Odds Ratio, PASI75 response status (IL-17A low-PASI low, 12 mg QD vs placebo): 0.415
Odds Ratio, PASI75 response status (IL-17A low, 6 mg QD vs placebo, adjusted for baseline PASI score): 0.588
Odds Ratio for PASI75 response (IL-17A low, 6 mg QD vs placebo): 0.553
Odds Ratio, PASI75 response status (IL-17A low, 12 mg QD vs placebo, adjusted for baseline PASI score): 1.812
Odds Ratio for PASI75 response (IL-17A low, 12 mg QD vs placebo): 1.730
Odds Ratio for PASI75 response (IL-17A low, treatment arms combined vs placebo): 1.014
PASI75 response rate at week 16 (IL-19-high group, 6 mg QD and 12 mg QD vs placebo arm (FIG. 14)): higher in both 6 mg QD and 12 mg QD treatment arms compared to the response rate in the placebo arm
Odds Ratio (OR) for PASI75 response (IL-19-low-PASI high, 6 mg QD vs placebo): 1.244
Odds Ratio (OR) for PASI75 response (IL-19-low-PASI high, 12 mg QD vs placebo): 2.845
Odds Ratio (OR) for PASI75 response (IL-19-low-PASI low, 6 mg QD vs placebo): 0.321
Odds Ratio (OR) for PASI75 response (IL-19-low-PASI low, 12 mg QD vs placebo): 0.380
Odds Ratio (OR) for PASI75 response (IL-19 low, 6 mg QD vs placebo): 0.443
Odds Ratio (OR) for PASI75 response (IL-19 low, 12 mg QD vs placebo): 0.842
Odds Ratio for PASI75 response (IL-19 low, treatment arms combined vs placebo): 6.284
Interaction Term for PASI75 response (ratio of odds ratios) (adjusted for baseline PASI score, 6 mg QD vs placebo: BD2-high versus BD2-low): 13.742
Interaction Term for PASI75 response (ratio of odds ratios) (adjusted for baseline PASI score, 12 mg QD vs placebo: BD2-high versus BD2-low): 19.455
Odds Ratio for PASI75 response (adjusted for baseline PASI score, All patients, 6 mg QD vs placebo): 3.052
Odds Ratio for PASI75 response (adjusted for baseline PASI score, All patients, 12 mg QD vs placebo): 6.494
Odds Ratio for PASI75 response (adjusted for baseline PASI score, BD2-high, 6 mg QD vs placebo): 13.559
Odds Ratio for PASI75 response (adjusted for baseline PASI score, BD2-high, 12 mg QD vs placebo): 34.074
Odds Ratio for PASI75 response (adjusted for baseline PASI score, BD2-low, 6 mg QD vs placebo): 0.987
Odds Ratio for PASI75 response (adjusted for baseline PASI score, BD2-low, 12 mg QD vs placebo): 1.751
Odds Ratio (OR) for PASI75 response (adjusted for baseline PASI score, IL-19 low, 6 mg QD vs placebo): 0.476
Odds Ratio (OR) for PASI75 response (adjusted for baseline PASI score, IL-19 low, 12 mg QD vs placebo): 0.896
PASI75 response rate at week 16 (both CRP-high and CRP-low groups, 6 mg, 12 mg, placebo arms (FIG. 38)): the response rate was higher in the 6 mg deucravacitinib treatment arm than in the placebo arm, and the response rate was even higher in the 12 mg deucravacitinib treatment arm than in the 6 mg treatment arm
Interaction Term for PASI75 response (ratio of odds ratios) (treatment arms combined vs placebo: BD2 high versus BD2 low): 12.100
Interaction Term: treatment arm*CRP group, PASI75 (treatment arms combined vs placebo: CRP high versus CRP low): 1.903
Interaction Term for PASI75 response (ratio of odds ratios) (treatment arms combined vs placebo: IL-17A high versus IL-17A low): 15.541
